pIC50: −log10 of the molar value. Read-outs that look alike come from different tables or passages of the source.
Biological target: Endothelial lipase (EL) (Homo sapiens (Human), UniProt Q9Y5X9)
Assay: Endothelial lipase (EL) enzymatic assay with fluorescent substrate A10070 in DMPG vesicles
Format: biochemical
Procedure, shortened: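 EL from conditioned medium of HT-1080 cells engineered to overexpress endogenous EL; HL partially purified from conditioned medium of HL-overexpressing COS cells. Enzyme preincubated with compound 30 min at 37° C in 50 mM HEPES pH 8.0, 50 mM NaCl, 1 mM CaCl2; DMPG vesicles carrying FRET substrate (0.11 mole fraction) then added.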

Chain of Endothelial lipase (EL) (Q9Y5X9 21-500): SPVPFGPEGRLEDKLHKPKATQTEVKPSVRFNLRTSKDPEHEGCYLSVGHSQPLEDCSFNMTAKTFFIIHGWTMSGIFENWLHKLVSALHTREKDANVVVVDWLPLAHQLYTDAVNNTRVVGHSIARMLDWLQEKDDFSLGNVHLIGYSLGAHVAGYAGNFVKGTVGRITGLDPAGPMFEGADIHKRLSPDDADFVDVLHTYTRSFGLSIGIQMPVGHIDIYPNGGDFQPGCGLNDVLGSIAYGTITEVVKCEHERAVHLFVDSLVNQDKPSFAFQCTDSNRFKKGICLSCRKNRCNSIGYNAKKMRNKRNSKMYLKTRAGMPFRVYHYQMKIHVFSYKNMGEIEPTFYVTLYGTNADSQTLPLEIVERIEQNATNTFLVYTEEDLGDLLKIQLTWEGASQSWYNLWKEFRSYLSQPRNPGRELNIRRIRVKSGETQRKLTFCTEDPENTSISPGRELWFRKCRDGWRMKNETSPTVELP

pIC50 (reference compounds, EL from conditioned media of HT-1080 cells, 30 min preincubation at 37° C.)	pIC50	Compound
< 4.21	–	CC(C)c1cc(CNC(=O)C(C)(C)c2nc3ccc(-c4ccccc4)cc3s2)on1 [Reference 2, N-((3-Isopropylisoxazol-5-yl)methyl)-2-methyl-2-(6-phenylbenzo[d]thiazol-2-yl)propanamide, reference compound]
–	8.70	propan-2-yl N-{4- [2-({[(cyclopropyl- carbamoyl)methyl] carbamoyl}(2- methoxyethane- sulfonyl)methyl)- 5-fluoro-1,3- benzothiazol- 6-yl]phenyl} carbamate [Example 540]
